Source: patent US20250255876A1, “COMPOSITIONS AND METHODS FOR CANCER TREATMENT” (ARIEL SCIENTIFIC INNOVATIONS LTD., priority 2021, published 2025)
Entries after “also recorded” stand apart in the source; their conditions may differ.

Key:
Format in all cases: cell-based
H1975 cells = assay: Colony survival assay, H1975 cells; details: for survival rate, combined treatment: H1975, 5 μM cisplatin + 50 μM compound; for toxicity / cell viability, compound alone: H1975, 50 μM compound alone; for sensitization effect to cisplatin: H1975, cisplatin + 50 μM compound; for sensitization to doxorubicin: H1975, doxorubicin + 50 μM compound, 48 h; for cell survival with cisplatin plus inhibitor: H1975, varying cisplatin, 48 hours
Procedure: H1975 cells were plated in 24-well plates at 50,000 cells/well (for 50 µM inhibitor treatment) or 20,000 cells/well (for […] inhibitor treatment). U2OS and A549 cells were plated in 24-well plates at 5000 cells/well. The next day, cells were treated with varying concentrations of cisplatin, either with or without added inhibitor compound. After 48 hours of cisplatin+compound treatment, the cells were washed 3 times with PBS×1 and fresh media applied. After 4 days of recovery, the cells were stained with methylene blue and imaged using a Nikon SMZ25 stereomicroscope. The images were analyzed using the ImageJ (National Institutes of Health) area measurement tool to quantify total colony size in each well.
Cells were plated in 24-well plates at 50,000 cells/well (H1975 line) or 10,000 cells/well (A549 line). The next day, cells were treated with varying concentrations of cisplatin ([…]), with or without 50 μM compound. For the untreated control wells containing only cisplatin, DMSO was applied in place of the compound. After 48 hours of cisplatin+compound treatment, the cells were washed 3 times with PBS and fresh media was applied. After 4 days of recovery, the cells were stained with methylene blue and imaged using a Nikon SMZ25 stereomicroscope. The images were analyzed using the ImageJ (National Institutes of Health) area measurement tool to quantify total colony size in each well.
In order to assess the ability of the selected compounds to sensitize cells during cisplatin treatment, the inventors established a colony survival assay comparing the viability of cells treated with cisplatin alone or with combined treatment of cisplatin and 50 μM compound. For the compound screen, we used two lung cancer cell lines: human non-small lung carcinoma H1975 cells, and epithelial lung adenocarcinoma A549 cells. Out of ten compounds tested, compounds c #2 and c #3 were identified with the most significant sensitization effect and were chosen for future characterization. […] Survival rate was reduced from 90% in 5 μM cisplatin treatment to 50% survival in the combined treatment (FIGS. 11A-B). H1975 cells presented similar behavior following doxorubicin treatment (FIG. 11C). IC50 was calculated using linear regression, presenting a clear reduction of cisplatin's IC50 in all treatments.

γH2AX foci in A549 cells = assay: γH2AX foci immunofluorescence, A549 cells; details: for cells with more than 80 foci or very bright signal, combined treatment / number of γH2AX foci/cell, combined treatment: A549, 10 μM cisplatin + 50 μM compound; for number of γH2AX foci/cell, combined treatment: overnight
Procedure: H1975 and A549 cells were grown on glass coverslips in 12-well plates with the appropriate media, and fixed in 4% paraformaldehyde for 10 minutes at room temperature. Cells were permeabilizedin 0.5% TritonX100 in PBS×1 for 10 minutes at room temperature and then blocked in 5% BSA in 0.1% PBS×1-Tween for 1 hour at room temperature. Anti-phospho-Histone H2A.X primary antibody ([…]; 05-636-25UG) diluted 1:400 in 5% BSA in 0.1% PBS×1-Tween was added for 1 hour at room temperature. Fluorescent-dye conjugated secondary antibody was applied for 1 hour at room temperature. The coverslips were washed between each step with PBS×1. Nuclei were stained with DAPI (1:2000 dilution) at room temperature in the dark for 3 minutes. Coverslips were mounted on glass slides and imaged using an Olympus 1×81 microscope. For all treatments, cells with fewer than 80 foci were scored manually (FIG. 4B), and cells with more than 80 foci and very bright signals were scored automatically by using the “Analyze Particles” function in ImageJ (National Institutes of Health) after setting a suitable threshold.
Next, the inventors examined whether combined treatment of cisplatin with c #2 or c #3 correlates with an increase in DNA damage, which might explain the compound's sensitization effect. A549 and H1975 cell lines were exposed to combined overnight treatment with cisplatin and c #2 or c #3, and the levels of γH2AX foci were monitored. In both cell lines, a clear increase in the number of foci was observed after combined treatment, compared to cells treated with cisplatin or compounds alone (FIG. 12A).
Combined treatment of cisplatin with c #3 correlates with an increase in DNA damage. Levels of γ-H2AX foci, a marker for DNA double-strand breaks, were compared in H1975, A549 and B16F10 cell lines.

MAD2L2 = MAD2L2 (Homo sapiens, UniProt Q9UI95); assay: Cellular thermal shift assay (CETSA) in 293T cells; details: 50 μM, 1 hour
Procedure: The in vivo binding of MAD2L2 to the small molecule compounds was detected using the cellular thermal shift assay (CETSA), following their standard protocol. Briefly, 293T cells were grown to confluency and treated for 1 hour with the DMSO or selected compounds at 50 µM. Cells were collected and centrifuged for 3 min at 300 g, washed once with PBS, and each pellet was resuspended in 1 ml of PBS supplemented with Merck® 1000×protease inhibitor (539134). The cell suspensions were aliquoted and incubated for 3 min in the VWR XT96 thermal cycler using a gradient from 40°−55° C. Following heating, the tubes were incubated at room temperature for 3 min and then snap frozen in liquid nitrogen. The samples were then lysed via two subsequent freeze-thaw cycles with vortexing, and the lysates were centrifuged at 20,000 g for 20 min at 4° C. Finally, the cleared lysates were boiled in Laemmli buffer for 5 minutes.
In order to validate that MAD2L2 is a direct target of c #2 and c #3, the inventors tested the compounds' binding kinetics to a recombinant protein by Field Effect Biosensing (FEB) technology. Briefly, purified GST-MAD2L2 was immobilized onto a […] chip, and the current across the chip is measured to determine the baseline current. Then, a soluble compound was flowed over the chip. Interaction of the soluble and immobilized molecules yields a detectable change in conductance of the biosensor. The Kon and Koff of the interaction were measured over time and were used to calculate the KD. The binding of both c #2 and c #3 to MAD2L2 is in the micromolar range: 31.08 μM and 44.88 μM, respectively (FIG. 13A). […] The in vivo binding of c #2 or c #3 to MAD2L2 was validated by using a cellular thermal shift assay (CETSA), which is a reliable reporter showing whether a molecule enters the cell and the nucleus and binds to the protein of interest. Briefly, under normal conditions, most of the MAD2L2 protein unfolds, aggregates and disappears from the soluble fraction of the lysate between 46° C. and 49° C. […]

Sequence of MAD2L2 (Q9UI95 whole entry): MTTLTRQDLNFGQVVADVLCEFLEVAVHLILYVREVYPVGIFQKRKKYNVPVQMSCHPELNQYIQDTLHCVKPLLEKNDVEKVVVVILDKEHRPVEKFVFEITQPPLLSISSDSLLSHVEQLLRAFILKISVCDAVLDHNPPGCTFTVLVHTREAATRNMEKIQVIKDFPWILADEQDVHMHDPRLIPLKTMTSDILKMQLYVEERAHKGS

Structure (SMILES) | survival rate, combined treatment (H1975 cells) | toxicity / cell viability, compound alone (H1975 cells) | toxicity / cell viability, compound alone (H1975 cells; listed as c #2) | sensitization effect to cisplatin (H1975 cells) | sensitization to doxorubicin (H1975 cells) | cell survival with cisplatin plus inhibitor (H1975 cells) | cells with more than 80 foci or very bright signal, combined treatment (γH2AX foci in A549 cells) | number of γH2AX foci/cell, combined treatment (γH2AX foci in A549 cells) | stabilization of folded MAD2L2 (in words) (MAD2L2) | MAD2L2 aggregation temperature (MAD2L2; normal conditions between 46° C. and 49° C.) | toxicity / cell viability, compound alone (H1975 cells; listed as c #3) | increase in γ-H2AX foci/cell in co-treated cells (γH2AX foci in A549 cells; A549, 10 μM cisplatin + 50 μM c #3, 16 h) | γ-H2AX signal, c #3 alone (γH2AX foci in A549 cells; A549, c #3 alone) | stabilization of folded MAD2L2 (in words) (MAD2L2; listed as c #3)
CNc1nc(N2CCCCC2)nc(-n2cnc(SCC(N)=O)n2)n1 [Compound 2] | 50% | no reduction in cell viability | caused no toxicity | approximately twofold sensitization effect | sensitized | reduction in cell survival | significantly more abundant | significant increase in the number of γH2AX foci/cell | stabilize the folded MAD2L2 protein | milder change in MAD2L2's aggregation temperature | – | – | – | –
Cc1oc(-c2ccco2)nc1CC(=O)N[C@@H](C(=O)O)c1ccccc1 [Compound 3] | 50% | no reduction in cell viability | – | approximately twofold sensitization effect | sensitized | reduction in cell survival | significantly more abundant | significant increase in the number of γH2AX foci/cell | – | – | caused no toxicity | 2 fold | no effect on the γ-H2AX signal | stabilize the folded MAD2L2 protein; also recorded: stronger binding affinity to MAD2L2 than c #2
